Laboratory results taken from PMC5484485, “In vitro and in vivo effects of kisspeptin antagonists p234, p271, p354, and p356 on GPR54 activation” (PLoS ONE, 2017).
Square brackets hold non-standard residues; d marks the D form. Ends that are not written are not given here.

Assays:
human GPR54 [1] = biological target: T1, human GPR54 (Homo sapiens, UniProt Q969F8); assay: Flow cytometric calcium flux assay, response to peptide alone (agonist / intrinsic activity); assay type: cell-based; parameters: host or cells: rat hematopoietic CHEM1 cells expressing endogenous Galpha15; details: 10^-13 to 10^-5 M, n = 3; for EC50: CHEM1-GPR54 cells in suspension, Fluo-3 AM, flow cytometry
Method: In vitro analyses of the effects of kisspeptin and kisspeptin antagonists, were performed using HT[…] cells (rat hematopoietic CHEM1 cells expressing endogenous Gα15 and, stably expressing the human GPR54 receptor (Millipore BV, the Netherlands), CHEM1-GPR54. Cells were counted and suspended in HBSS+++ at a concentration of 5*10^6 cells/ml. To load the cells with the fluorescent dye ester they were incubated in HBSS+++ adjusted to a concentration of 2 μM Fluo-3 AM (Molecular Probes, Life Technologies, the Netherlands) for 1h at 37°C under agitation in the dark. After incubation, the cells were washed by adding HBSS+++ to a volume of 10 ml followed by centrifugation (5 min, 150 x g) to remove excess of Fluo-3AM. […] Thereafter the tube was removed briefly and 25 μl peptide (see below) was added, after which aspiration and analysis continued. For statistical analyses fluorescent data recorded during the time interval 30-60 seconds after initiation of measurement were used. […] Experiments were performed 3 times. Representative flow cytometry results are depicted in Fig 1. […] We then assessed whether these antagonists could compete with KP10 for its receptor. […] For this purpose 25 μl quantities of the antagonists were added to 200 μl of Fluo-3 AM labelled cells (10^6 cells/ml) and incubated for 15 min. […] Peptides p354 and p356 were tested three times with both human and canine KP10; while peptides p234 and p271 were tested three times with human KP10 and once with canine KP10. […] A multivariate general linear model was set up to analyze differences in calcium response between the different concentrations, with Dunnett's test as a post hoc procedure for the antagonists and Bonferroni's test for the agonists.

CHEM1-GPR54 cells = biological target: T2, CHEM1-GPR54 cells (Homo sapiens, UniProt Q969F8); assay: Preliminary calcium flux assay with adherent CHEM1-GPR54 cells (unpublished); assay type: cell-based; details: too few repeats for statistics
T2 construct: host or cells: rat hematopoietic CHEM1 cells expressing endogenous Galpha15

circulating LH / puberty = details: cited from earlier work
Method: The development of kisspeptin antagonists contributed to an improved understanding of the role of kisspeptin in the reproductive system. Roseweir et al. developed several KP10 analogues and tested their effect on inositol phosphate (IP) release in Chinese hamster ovarian (CHO) cells stably expressing the human GPR54. […] The kisspeptin antagonists were administered intravenously in a dose of 50 μg/kg/h, and had no effect on either the basal plasma LH concentration during the continuous administration or on the KP10-induced LH response. These findings are in line with a previous study in female dogs. […] Adult male rats received an intrape ...

human GPR54 [2] = biological target: T1, human GPR54; assay: Flow cytometric calcium flux assay, KP10-induced response after 15 min pre-incubation with antagonist; assay type: cell-based; parameters: host or cells: rat hematopoietic CHEM1 cells expressing endogenous Galpha15; details: all concentrations 10^-13 to 10^-5 M; 10^-8 M KP10; 15 min pre-incubation; P = 1.00
Method: In vitro analyses of the effects of kisspeptin and kisspeptin antagonists, were performed using HT[…] cells (rat hematopoietic CHEM1 cells expressing endogenous Gα15 and, stably expressing the human GPR54 receptor (Millipore BV, the Netherlands), CHEM1-GPR54. Cells were counted and suspended in HBSS+++ at a concentration of 5*10^6 cells/ml. To load the cells with the fluorescent dye ester they were incubated in HBSS+++ adjusted to a concentration of 2 μM Fluo-3 AM (Molecular Probes, Life Technologies, the Netherlands) for 1h at 37°C under agitation in the dark. After incubation, the cells were washed by adding HBSS+++ to a volume of 10 ml followed by centrifugation (5 min, 150 x g) to remove excess of Fluo-3AM. […] Thereafter the tube was removed briefly and 25 μl peptide (see below) was added, after which aspiration and analysis continued. For statistical analyses fluorescent data recorded during the time interval 30-60 seconds after initiation of measurement were used. […] We then assessed whether these antagonists could compete with KP10 for its receptor. […] For this purpose 25 μl quantities of the antagonists were added to 200 μl of Fluo-3 AM labelled cells (10^6 cells/ml) and incubated for 15 min. […] Peptides p354 and p356 were tested three times with both human and canine KP10; while peptides p234 and p271 were tested three times with human KP10 and once with canine KP10. To analyze the effects of different concentrations of the KP antagonists on the calcium response due to KP10 addition, the differences in fluorescence before and after KP10 were calculated (the calcium response). The calcium response ratios were calculated as the calcium response of the CHEM1-GPR54 cells pre-incubated with different concentrations of KP antagonist and the control (the calcium response of the cells without KP antagonist). These calcium response ratios were log transformed and used for further analysis by univariate analysis of variance, with the Dunnett's test as post hoc test. The calcium response ratios were set as dependent variables and the different concentrations of the antagonists and the two types of KP10 were used as fixed factors. The residuals were normally distributed.

human GPR54 [3] = biological target: T1, human GPR54; details: cited from earlier work
Text: The development of kisspeptin antagonists contributed to an improved understanding of the role of kisspeptin in the reproductive system. Roseweir et al. developed several KP10 analogues and tested their effect on inositol phosphate (IP) release in Chinese hamster ovarian (CHO) cells stably expressing the human GPR54. […] The peptide antagonists are KP10 analogs with substitutions at several positions, which should result in good receptor binding affinity but reduced receptor activation. None of the peptides tested in the present study prevented or inhibited the KP10-stimulated calcium response and thus receptor activation.

T1 sequence (Q969F8 whole entry): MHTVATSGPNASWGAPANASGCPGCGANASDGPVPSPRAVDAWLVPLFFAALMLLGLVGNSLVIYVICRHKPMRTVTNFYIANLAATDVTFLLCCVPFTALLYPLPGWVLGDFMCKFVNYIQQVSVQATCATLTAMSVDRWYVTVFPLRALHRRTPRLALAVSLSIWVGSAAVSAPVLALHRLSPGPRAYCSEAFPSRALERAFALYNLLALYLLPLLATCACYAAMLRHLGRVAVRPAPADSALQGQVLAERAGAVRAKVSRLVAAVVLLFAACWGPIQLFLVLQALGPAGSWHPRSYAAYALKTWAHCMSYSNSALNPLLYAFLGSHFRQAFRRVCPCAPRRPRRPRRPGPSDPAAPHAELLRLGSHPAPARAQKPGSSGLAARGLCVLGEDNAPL
T2 sequence (Q969F8 whole entry): as above

## YNWNVFGLRY-NH2 [cKP10, Tyr-Asn-Trp-Asn-Val-Phe-Gly-Leu-Arg-Tyr-NH2, reference compound]
Human GPR54 [1]
  EC50: 8 nM

## [dA]NWNGFG[dW]RF-NH2 [p234, kisspeptin antagonist, KP10 analog]
CHEM1-GPR54 cells
  inhibition of KP10-induced calcium response, adherent cells: could not be inhibited
Circulating LH / puberty; intact rats and mice
  effect of antagonist alone on basal plasma LH: did not lower the basal plasma LH concentration
Circulating LH / puberty; intracerebroventricular
  effect on circulating LH when co-administrated with KP10: prevented an increase in the circulating LH concentration
Circulating LH / puberty; rats, intracerebroventricular
  effect on vaginal opening (indicator of puberty): delayed vaginal opening
Human GPR54 [2]
  difference in calcium response ratio between controls and antagonist: not significant
Human GPR54 [1]; any tested concentration
  intrinsic calcium response: no significant intrinsic calcium response
Human GPR54 [3]; CHO cells stably expressing human GPR54
  inhibitory effect on IP release in vitro, rank among KP10 analogues: most potent inhibitory effect
Human GPR54 [3]; CHO cells that express GPR54
  inhibition of KP10-induced inositol phosphate (IP) production: 93%

## CC(C)C[C@H](NC(=O)CNC(=O)[C@H](Cc1ccccc1)NC(=O)[C@H](CO)NC(=O)[C@H](CC(N)=O)NC(=O)[C@H](Cc1c[nH]c2ccccc12)NC(=O)[C@H](CC(N)=O)NC(=O)[C@@H](N)Cc1ccc(O)cc1)C(=O)N[C@@H](CCCNC(=N)N)C(=O)N[C@@H](Cc1ccccc1)C(N)=O [hKP10, Tyr-Asn-Trp-Asn-Ser-Phe-Gly-Leu-Arg-Phe-NH2, reference compound]
Human GPR54 [1]
  EC50: 1.2 nM
